Common to all, as to format: cell-based
In test [1] the target is T1, 3-hydroxy-3-methylglutaryl-coenzyme A reductase (Homo sapiens, UniProt P04035).
T1 sequence (P04035 whole entry): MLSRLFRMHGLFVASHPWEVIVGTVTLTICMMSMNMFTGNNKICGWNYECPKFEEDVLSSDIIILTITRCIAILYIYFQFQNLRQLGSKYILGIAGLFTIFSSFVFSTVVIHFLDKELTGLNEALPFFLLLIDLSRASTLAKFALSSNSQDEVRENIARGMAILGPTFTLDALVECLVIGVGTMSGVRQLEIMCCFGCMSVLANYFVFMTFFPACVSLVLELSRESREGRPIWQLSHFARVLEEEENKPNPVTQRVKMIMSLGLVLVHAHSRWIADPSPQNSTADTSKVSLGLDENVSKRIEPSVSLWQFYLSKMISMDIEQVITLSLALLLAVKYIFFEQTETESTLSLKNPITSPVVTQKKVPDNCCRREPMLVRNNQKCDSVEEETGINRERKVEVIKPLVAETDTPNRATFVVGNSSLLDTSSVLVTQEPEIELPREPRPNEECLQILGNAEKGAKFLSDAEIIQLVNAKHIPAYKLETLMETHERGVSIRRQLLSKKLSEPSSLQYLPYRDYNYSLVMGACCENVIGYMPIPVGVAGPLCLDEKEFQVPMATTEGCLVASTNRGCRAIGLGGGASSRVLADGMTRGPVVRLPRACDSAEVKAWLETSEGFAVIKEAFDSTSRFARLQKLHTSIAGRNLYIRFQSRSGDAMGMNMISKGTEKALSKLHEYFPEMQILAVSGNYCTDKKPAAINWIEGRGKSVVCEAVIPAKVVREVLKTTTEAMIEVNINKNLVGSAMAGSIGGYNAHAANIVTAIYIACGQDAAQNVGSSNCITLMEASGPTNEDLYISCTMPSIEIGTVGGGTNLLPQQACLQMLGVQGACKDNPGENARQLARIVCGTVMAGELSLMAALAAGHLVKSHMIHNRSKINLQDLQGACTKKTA
Put plainly: Induction of HMGCR degradation in HEK293 cells incubated for 4 hrs by luciferase based assay.

For test [2], the target named is T1, 3-hydroxy-3-methylglutaryl-coenzyme A reductase. Put plainly: Induction of HMGCR degradation in human HepG2 cells incubated for 3 hrs by densitometric analysis.
For test [3], the target named is T2, 3-hydroxy-3-methylglutaryl-coenzyme A reductase (Cricetulus griseus, UniProt P00347).
T2 sequence (P00347 whole entry): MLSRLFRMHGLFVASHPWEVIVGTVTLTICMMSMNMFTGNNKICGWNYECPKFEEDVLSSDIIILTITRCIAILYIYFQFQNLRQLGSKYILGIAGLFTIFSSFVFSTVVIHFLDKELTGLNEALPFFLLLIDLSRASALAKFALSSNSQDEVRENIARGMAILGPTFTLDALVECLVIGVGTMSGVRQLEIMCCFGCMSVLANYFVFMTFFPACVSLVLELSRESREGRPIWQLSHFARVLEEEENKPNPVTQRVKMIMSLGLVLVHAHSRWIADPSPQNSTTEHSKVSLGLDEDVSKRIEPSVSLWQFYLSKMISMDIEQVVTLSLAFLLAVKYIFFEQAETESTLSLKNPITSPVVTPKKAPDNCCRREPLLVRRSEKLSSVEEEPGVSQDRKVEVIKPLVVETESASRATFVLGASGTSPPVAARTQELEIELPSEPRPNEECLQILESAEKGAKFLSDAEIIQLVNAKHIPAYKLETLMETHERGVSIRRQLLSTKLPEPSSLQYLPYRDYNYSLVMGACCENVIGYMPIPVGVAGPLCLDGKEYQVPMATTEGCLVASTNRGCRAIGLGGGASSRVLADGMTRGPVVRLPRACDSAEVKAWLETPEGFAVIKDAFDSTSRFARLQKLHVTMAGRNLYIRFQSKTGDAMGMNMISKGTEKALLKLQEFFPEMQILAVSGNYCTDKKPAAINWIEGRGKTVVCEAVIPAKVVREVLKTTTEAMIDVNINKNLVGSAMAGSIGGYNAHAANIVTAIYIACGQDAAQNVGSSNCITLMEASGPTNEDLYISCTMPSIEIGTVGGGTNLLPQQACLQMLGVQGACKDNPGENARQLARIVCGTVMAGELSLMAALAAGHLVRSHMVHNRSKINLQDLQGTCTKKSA
Put plainly: Induction of HMGCR degradation in CHO-7 cells incubated for 16 hrs by immunoblotting assay. (In western blotting, separated proteins are transferred to a membrane and probed.)

The structures appear in SMILES notation.

For orientation: EC50 means the midpoint of the concentration-response curve. Low readings indicate higher potency in that assay, high ones lower potency in that assay.

In test [1], `CC(C)COP(=O)(OCC(C)C)C(Cc1cc(C(C)(C)C)nc(C(C)(C)C)c1)P(=O)(OCC(C)C)OCC(C)C` showed an EC50 of more than 10000 nM.

`CCC(CF)(CF)c1cc(CC(P(=O)(OC(C)C)OC(C)C)P(=O)(OC(C)C)OC(C)C)cc(C(C)(C)C)n1`: in test [1], the EC50 came out at 102 nM. On to `CC(C)OP(=O)(OC(C)C)C(Cc1cc(C2CCCCC2)nc(C2CCCCC2)c1)P(=O)(OC(C)C)OC(C)C`, for which, in test [1], the EC50 is more than 10000 nM. Regarding `CCCCC(CC)c1cc(CC(P(=O)(OC(C)C)OC(C)C)P(=O)(OC(C)C)OC(C)C)cc(C(C)(C)C)n1` (centres undefined), the EC50 in test [1] was 990 nM. `CCCOP(=O)(OCCC)C(Cc1cc(C(C)(C)C)nc(C(C)(C)C)c1)P(=O)(OCCC)OCCC` gave an EC50 in test [1] of 832 nM.

With `CC(C)OP(=O)(OC(C)C)C(Cc1cc(C(C)(C)C)nc(C(C)(C)C)c1)P(=O)(OC(C)C)OC(C)C`, the EC50 in test [1] worked out at 132 nM. `CC(C)(C)c1cc(CC(P(=O)(OCC2CC2)OCC2CC2)P(=O)(OCC2CC2)OCC2CC2)cc(C(C)(C)C)n1` had a 50% effective concentration (EC50) in test [1] of more than 10000 nM. Compound `CC(C)OP(=O)(OC(C)C)C(Cc1cc(C(C)(C)C)cc(C(C)(C)C)n1)P(=O)(OC(C)C)OC(C)C` returned an EC50 in test [1] of 693 nM.

In turn, `CC(C)OP(=O)(OC(C)C)C(Cc1cc(C(C)(C)C)nc(C(C)(C)C)n1)P(=O)(OC(C)C)OC(C)C` had an EC50 in test [1] of 450 nM. As to `CC(C)OP(=O)(OC(C)C)C(Cc1cc(C2CCCCC2)nc(C(C)(C)C)c1)P(=O)(OC(C)C)OC(C)C`, the EC50 in test [1] was found to be 598 nM. Compound `CC(C)OP(=O)(OC(C)C)C(Cc1cc(C(C)C)nc(C(C)(C)C)c1)P(=O)(OC(C)C)OC(C)C` returned an EC50 in test [1] of 351 nM.

In test [1], `CC(C)OP(=O)(OC(C)C)C(Cc1cc(C(C)(C)C)nc2ccccc12)P(=O)(OC(C)C)OC(C)C` returned an EC50 of 1450 nM. Take `CCC(CF)(CF)c1cc(CC(P(=O)(OC(C)C)OC(C)C)P(=O)(OC(C)C)OC(C)C)cc(C(CC)(CF)CF)n1`: in test [1], a half-maximal effect (EC50) was put at 356 nM. With `CCC(C)(C)c1cc(CC(P(=O)(OC(C)C)OC(C)C)P(=O)(OC(C)C)OC(C)C)cc(C(C)(C)C)n1`, a half-maximal effect in test [1] (EC50) was put at 152 nM. `CC(C)OP(=O)(OC(C)C)C(Cc1cc(Cc2ccccc2)nc(C(C)(C)C)c1)P(=O)(OC(C)C)OC(C)C`: in test [1], a half-maximal response (EC50) required 874 nM. As for `CC(C)OP(=O)(OC(C)C)C(Cc1cc(C23CC4CC(CC(C4)C2)C3)nc(C23CC4CC(CC(C4)C2)C3)c1)P(=O)(OC(C)C)OC(C)C`, in test [1], the EC50 was more than 10000 nM. For `CCCCOP(=O)(OCCCC)C(Cc1cc(C(C)(C)C)nc(C(C)(C)C)c1)P(=O)(OCCCC)OCCCC`, in test [1], the EC50 was more than 10000 nM. For the compound `CCC(CC)c1cc(CC(P(=O)(OC(C)C)OC(C)C)P(=O)(OC(C)C)OC(C)C)cc(C(C)(C)C)n1`, the concentration for a half-maximal effect (EC50) in test [1] is 722 nM. In test [1], `CC(C)OP(=O)(OC(C)C)C(Cc1cc(C(C)(C)C)nc(C(C)(C)COCc2ccccc2)c1)P(=O)(OC(C)C)OC(C)C` came in with an EC50 of 311 nM.

Regarding `CCOP(=O)(OCC)C(Cc1cc(C(C)(C)C)c(O)c(C(C)(C)C)c1)P(=O)(OCC)OCC`, in test [2], it took 1100 nM to reach a half-maximal effect (EC50). Take `CCC(C)(C)c1cc(CC(P(=O)(OC(C)C)OC(C)C)P(=O)(OC(C)C)OC(C)C)cc(C(C)(C)CC)n1`: in test [1], a half-maximal effect (EC50) was put at 98.2 nM. Compound `CCOP(=O)(OCC)C(Cc1cc(C(C)(C)C)nc(C(C)(C)C)c1)P(=O)(OCC)OCC` gave an EC50 in test [1] of 337 nM. The compound `COCOCC(C)(C)c1cc(CC(P(=O)(OC(C)C)OC(C)C)P(=O)(OC(C)C)OC(C)C)cc(C(C)(C)C)n1` registered a concentration for a half-maximal effect (EC50) in test [1] of 492 nM. On the same count and under the same terms, in the case of `CC(C)OP(=O)(OC(C)C)C(Cc1cc(C(C)(C)CF)nc(C(C)(C)CF)c1)P(=O)(OC(C)C)OC(C)C` it was 84.2 nM; in that of `CCCC(C)(C)c1cc(CC(P(=O)(OC(C)C)OC(C)C)P(=O)(OC(C)C)OC(C)C)cc(C(C)(C)C)n1`, 336 nM; in that of `CC(C)OP(=O)(OC(C)C)C(Cc1cc(C(C)(C)C)nc(C(C)(C)CO)c1)P(=O)(OC(C)C)OC(C)C`, 389 nM. Compound `CC(C)OP(=O)(OC(C)C)C(Cc1cc(C(C)(C)C)nc(C23CC4CC(CC(C4)C2)C3)c1)P(=O)(OC(C)C)OC(C)C` registered a half-maximal effective concentration (EC50) in test [1] of 2260 nM. On to `C=CCC(O)(CC=C)CCC[C@@H](C)[C@H]1CC[C@H]2[C@@H]3[C@@H](O)C=C4C(C)(C)[C@@H](O)CC[C@]4(C)[C@H]3CC[C@]12C`, for which the concentration for a half-maximal effect (EC50) in test [3] was 390 nM. `CC(C)OP(=O)(OC(C)C)C(Cc1cc(C(C)(C)C)nc(C(C)(C)CF)c1)P(=O)(OC(C)C)OC(C)C` gave an EC50 in test [1] of 97.6 nM.

The record behind these values is ChEMBL document CHEMBL5236654, “Fine-tuning of nitrogen-containing bisphosphonate esters that potently induce degradation of HMG-CoA reductase” (Bioorg Med Chem, 2023).
